# Like-named read-outs stand apart in the source and are kept apart here.
# Legend:
# [1] = test system: normal human embryonal lung fibroblast cells (MRC-5); experiment: In vitro cytotoxicity MTT assay; type: cell-based
# From the text: (§1) Four cell lines were used in this study: the doxorubicin-sensitive Colo205 (CCL-222, ATCC, Manassas, VA, USA) human colon adenocarcinoma cell line; the doxorubicin-resistant Colo320/MDR-LRP expressing P-glycoprotein (P-gp, ABCB1) (MDR1)-LRP (CCL-220.1, ATCC) human colon adenocarcinoma cell line; the hormone-responsive MCF-7 breast cancer cell line and the normal MRC-5 human embryonal lung fibroblast cell line (CCL-171, ATCC). The human cancer cell lines were purchased from LGC Promochem (Teddington, UK), and the MRC-5 cell line is a Sigma-Aldrich (Merck KGaA, Darmstadt, Germany) product. The Colo205 and Colo320 cell lines were cultured in RPMI 1640 medium supplemented with 10% fetal bovine serum (FBS), 2 mM L-glutamine, 1 mM Na-pyruvate and 10 mM HEPES. The MCF-7 and MRC-5 cells were cultured in Eagle's Minimal Essential Medium (EMEM) containing 4.5 g L^−1 of glucose and supplemented with a non-essential amino acid mixture, a selection of vitamins and 10% FBS. All cell lines were incubated at 37 °C, 5% CO2, 95% air atmosphere. The cells were detached with Trypsin-Versene (EDTA) solution for 5 min at 37 °C.
# (§2) Prior to the cytotoxicity assays 10 mM stock solutions of the tested compounds were prepared in DMSO. These stock solutions were diluted with the culture medium (EMEM or RPMI 1640), and twofold serial dilutions of the compounds were prepared in 100 μL of the appropriate medium. […] The positive control was doxorubicin (Merck), and CuCl2 was also tested. All cancer cells were treated with Trypsin-Versene (EDTA) solution. A cell density of 1 × 10^4 cells was adjusted for the colon adenocarcinoma cells in 100 μL of RPMI 1640 medium and were added to each well, except for the medium control wells. The final volume was 200 μL in the wells containing compounds and cells. The MCF-7 and MRC-5 cells were seeded overnight prior to the assay. The following day, the serial dilution of the compounds were made in separate plates and added to the cells. The culture plates were incubated at 37 °C for 72 h; and at the end of the incubation period, 20 μL of 5 mg mL^−1 3-(4,5-dimethylthiazol-2-yl)-2,5-diphenyltetrazolium bromide (MTT) solution was added to each well and incubated for 4 h at 37 °C. The plates were further incubated at 37 °C overnight following the addition of 100 μL of sodium dodecyl sulfate (SDS) solution (10% in 0.01 M HCl). The optical density (OD) was measured at 450 nm (ref. 620 nm) with a Multiscan EX ELISA reader to follow the cell growth. Inhibition of cell growth (expressed as IC50: inhibitory concentration that reduces by 50% the growth of the cells exposed to the tested compounds) was determined from the sigmoid curve, where 100 − ((ODsample − ODmedium control)/(ODcell control − ODmedium control)) × 100 values were plotted against the logarithm of compound concentrations. The sigmoidal dose–response model (comparing variable and fixed slopes) of the GraphPad Prism software[88] was used to fit the curves. The IC50 values are averages from at least 3 independent experiments.
# [2] = test system: Colo205 human colon adenocarcinoma cell line; experiment: In vitro cytotoxicity MTT assay; type: cell-based; settings: for IC50: 72 h incubation, MTT
# From the text: as §1, §2
# [3] = test system: doxorubicin-resistant Colo320 human colon adenocarcinoma cell line; experiment: In vitro cytotoxicity MTT assay; type: cell-based; settings: for IC50: 72 h incubation, MTT
# From the text: as §1, §2
# [4] = test system: MCF-7 breast cancer cells; experiment: In vitro cytotoxicity MTT assay; type: cell-based, human; settings: for IC50: 72 h incubation, MTT
# Description: The human cancer cell lines were purchased from LGC Promochem (Teddington, UK), and the MRC-5 cell line is a Sigma-Aldrich (Merck KGaA, Darmstadt, Germany) product. […] The MCF-7 and MRC-5 cells were cultured in Eagle's Minimal Essential Medium (EMEM) containing 4.5 g L^−1 of glucose and supplemented with a non-essential amino acid mixture, a selection of vitamins and 10% FBS. […] The cells were detached with Trypsin-Versene (EDTA) solution for 5 min at 37 °C.
# Prior to the cytotoxicity assays 10 mM stock solutions of the tested compounds were prepared in DMSO. […] The positive control was doxorubicin (Merck), and CuCl2 was also tested. All cancer cells were treated with Trypsin-Versene (EDTA) solution. […] The final volume was 200 μL in the wells containing compounds and cells. The MCF-7 and MRC-5 cells were seeded overnight prior to the assay. The following day, the serial dilution of the compounds were made in separate plates and added to the cells. The culture plates were incubated at 37 °C for 72 h; and at the end of the incubation period, 20 μL of 5 mg mL^−1 3-(4,5-dimethylthiazol-2-yl)-2,5-diphenyltetrazolium bromide (MTT) solution was added to each well and incubated for 4 h at 37 °C. The plates were further incubated at 37 °C overnight following the addition of 100 μL of sodium dodecyl sulfate (SDS) solution (10% in 0.01 M HCl). The optical density (OD) was measured at 450 nm (ref. 620 nm) with a Multiscan EX ELISA reader to follow the cell growth. […] The sigmoidal dose–response model (comparing variable and fixed slopes) of the GraphPad Prism software[88] was used to fit the curves. The IC50 values are averages from at least 3 independent experiments.
# [5] = Thermodynamic solubility by UV-vis in saturated solutions; type: physicochemical; settings: 20 mM HEPES buffer, 25 °C, aqueous buffer, thermodynamic from solid; pH 7.4 (20 mM HEPES), aqueous solution, T = 298 K, I = 0.10 M (KCl); read-out: Thermodynamic solubility S 7.4
# Description: The thermodynamic solubility (S) of the studied compounds was determined in saturated solutions at pH 7.40 (20 mM HEPES buffer) in the absence of DMSO at 25.0 ± 0.1 °C. UV–vis spectrophotometry was applied to determine the concentration of the compounds using calibrating samples of the compounds of known concentrations dissolved in 100% DMSO and 50% (v/v) DMSO/buffered aqueous solutions.
# [6] = test system: ct-DNA; experiment: Ethidium displacement from ct-DNA by spectrofluorimetry; type: binding, calf; settings: cDNA = 0.5 μM, cethidium = 0.25 μM, 298 K, 10 mM HEPES, pH 7.40
# Description: Fluorescence measurements were carried out on a Fluoromax (Horiba Jobin Yvon) fluorimeter. Stock solutions of the complexes and ligands were prepared in pure DMSO (c = 1 or 0.5 mM). Stock solution of ct-DNA was prepared as described recently.[86] The sample volume was […] and contained 0.5 μM ct-DNA expressed in base pairs, 0.25 μM ethidium and different concentrations of complexes 1, 2, 4, 5, 6, 4(6), 4(7) or ligands (HL^1, HL^2, HL^5, HL^6) in 10 mM HEPES buffer (pH 7.40). DMSO content of the samples varied between 0 and 1% (v/v). The excitation wavelength was 510 nm, and the fluorescence emission was measured in the range of 530–750 nm. Corrections for self-absorbance and inner filter effect were performed as described previously.[87]
# [7] = Proton dissociation constants of ligands by UV-vis titrations; type: physicochemical; settings: DMSO:water 30:70 (v/v) mixture, 30:70% (v/v) DMSO/H2O, T = 298 K, I = 0.10 M (KCl)
# Description: The UV–vis spectra were recorded on an Agilent Cary 8454 diode array spectrophotometer between 200 and 800 nm. Spectrophotometric titrations were carried out on samples containing the ligand (HL^1, HL^2, HL^5 or HL^1(7)) or the ligand and Cu(II) ions together at different ligand-to-metal ratios (1 : 1, 1.5 : 1, 2 : 1) by a KOH solution in a DMSO : water 30 : 70 (v/v) mixture as solvent at 25.0 ± 0.1 °C in the pH range from 1.7 to 12.7 using 0.1 M KCl ionic strength. The concentration of ligands was 10 μM. The path length was 5 cm. For pH measurements and titrations, an Orion 710A pH-meter equipped with a Metrohm combined electrode (type 6.0234.100) and a Metrohm 665 Dosimat burette was used. Blank titrations (HCl vs. KOH) were performed similarly to the method proposed by Irving et al. for pure aqueous solutions to calibrate the electrode system to the pH = −log[H+] scale in the DMSO–water solvent mixture.[83] The water ionization constant (pKw) was determined to be 14.52 ± 0.05 on average, which is in line with the literature data.[84] During the titrations argon was passed over the solutions. The computer program PSEQUAD was used to calculate the proton dissociation constants (pKa) of the ligands, the overall stability constants (log β) of the Cu(II) complexes and the individual spectra of the various species present in solution.[85] […]
# [8] = test system: tubulin (colchicine site); experiment: Inhibition of [3H]colchicine binding to tubulin; settings: 0.5 μM tubulin, 5 μM [3H]colchicine
# Description: The methods used to determine the IC50 values for tubulin assembly and inhibition of [^3H]colchicine binding were recently described in detail.[96] In brief, for the assembly assay, 0.25 mL reaction mixtures contained 1.0 mg mL^−1 (10 μM) tubulin, 0.8 M monosodium glutamate (pH 6.6 with HCl in 2.0 M stock solution), 4% (v/v) DMSO (compound solvent), varying compound concentrations, and 100 μM GTP. All components except GTP were preincubated at 30 °C for 15 min in a 0.24 mL volume. Reaction mixtures were then placed on ice, and the GTP was added in a 10 μL volume. Assembly was monitored in Beckman DU7400/7500 spectrophotometers equipped with electronic temperature controllers and driven by a custom program. The samples were transferred to cuvettes held at 0 °C, and the temperature was jumped to 30 °C over about 30 s. Change in turbidity was measured for 20 min at 350 nm, and the IC50 was defined as the compound concentration that reduced the extent of reaction by 50%. For the colchicine binding assay, reaction mixtures contained 0.05 mg mL^−1 (0.5 μM) tubulin, 5.0 μM [^3H]colchicine, 5% (v/v) DMSO (compound solvent), compound as indicated, and components found to stabilize the colchicine binding activity of tubulin. Incubation was for 10 min at 37 °C, at which time the amount of colchicine bound to the tubulin is 40–60% of maximum. Each reaction mixture was diluted with 2.0 mL of ice cold water and poured onto a single Whatman DEAE-cellulose filter (tubulin binds tightly to the filter, and unbound colchicine passes through). Gravity filtration was used for the samples, and the filters were then washed with three 2.0 mL aliquots of ice cold water (vacuum aspiration). The filters were counted in a Beckman scintillation counter, with correction for the amount of radiolabel bound to filters in the absence of tubulin.
# [9] = Stability constants and pKa of Cu(II) complexes by UV-vis titrations; type: physicochemical; settings: 30:70% (v/v) DMSO/H2O
# Description: The UV–vis spectra were recorded on an Agilent Cary 8454 diode array spectrophotometer between 200 and 800 nm. Spectrophotometric titrations were carried out on samples containing the ligand (HL^1, HL^2, HL^5 or HL^1(7)) or the ligand and Cu(II) ions together at different ligand-to-metal ratios (1 : 1, 1.5 : 1, 2 : 1) by a KOH solution in a DMSO : water 30 : 70 (v/v) mixture as solvent at 25.0 ± 0.1 °C in the pH range from 1.7 to 12.7 using 0.1 M KCl ionic strength. The concentration of ligands was 10 μM. The path length was 5 cm. For pH measurements and titrations, an Orion 710A pH-meter equipped with a Metrohm combined electrode (type 6.0234.100) and a Metrohm 665 Dosimat burette was used. Blank titrations (HCl vs. KOH) were performed similarly to the method proposed by Irving et al. for pure aqueous solutions to calibrate the electrode system to the pH = −log[H+] scale in the DMSO–water solvent mixture.[83] The water ionization constant (pKw) was determined to be 14.52 ± 0.05 on average, which is in line with the literature data.[84] During the titrations argon was passed over the solutions. The computer program PSEQUAD was used to calculate the proton dissociation constants (pKa) of the ligands, the overall stability constants (log β) of the Cu(II) complexes and the individual spectra of the various species present in solution.[85] In the general equilibrium pM + qL + rH ⇌ MpLqHr the stability constants is defined as β(MpLqHr) = [MpLqHr]/[M]^p[L]^q[H]^r, where M denotes the Cu(II) ion and L the completely deprotonated ligand. The calculations were always performed from experimental data where no precipitation was observed during titration.
# [10] = selectivity factor normal vs cancer cells
# [11] = Cu(II) complex of the ligand, T = 298 K, I = 0.10 M (KCl)
Structure (SMILES),IC50 ([1]; 72 h incubation),IC50 [2],IC50 [3],IC50 [4],solubility thermodynamic [5],Displacement of intercalated ethidium from ct-DNA (in words) [6],"IC50 ([1]; Homo sapiens, MRC5, 72 h incubation)","IC50 ([2]; Homo sapiens, COLO 205)","SF (Colo205) = IC50 MRC-5/IC50 Colo205 [2, 10]","IC50 ([3]; Homo sapiens, COLO 320)","SF (Colo320) = IC50 MRC-5/IC50 Colo320 [3, 10]",pKa ([7]; read-out: pKa1 H2(HL)^2+),pKa ([7]; read-out: pKa2 H(HL)^+),"IC50 ([4]; Homo sapiens, MCF7)","SF (MCF-7) = IC50 MRC-5/IC50 MCF-7 [4, 10]",Inhibition of colchicine binding % inhibition ± SD ([8]; 5 μM inhibitor),Inhibition of colchicine binding % inhibition ± SD ([8]; 25 μM inhibitor),"log β [Cu(HL)]^2+ [9, 11]","log β [Cu(L)]^+ [9, 11]","log K′ [Cu(L)]^+ ([9]; K′: H2(HL)^2+ + Cu^2+ ⇌ [Cu(L)]^+ + 3H^+, 298 K)"
"[Cl][Cu][Cl] [CuCl2, reference compound]",40 ± 1 µM,33 ± 1 µM,20 ± 2 µM,32 ± 3 µM,,,,,,,,,,,,,,,,
C(=N\N=C1/NCCc2ccccc2-c2c1[nH]c1ccccc21)/c1ccccn1 [HL^1],,,,,8 µM,could not displace the intercalated ethidium cation,40 ± 1 µM,30 ± 2 µM,1.37,5.6 ± 0.1 µM,7.26,2.07 ± 0.01,5.04 ± 0.02,1.3 ± 0.1 µM,31.03,18 ± 5%,46 ± 5%,8.55 ± 0.02,4.14 ± 0.02,−2.97

# Reference: article PMC10368209, “Indolo[2,3-e]benzazocines and indolo[2,3-f]benzazonines and their copper(II) complexes as microtubule destabilizing agents” (Dalton Transactions (Cambridge, England : 2003), 2023)
